Laboratory results reported in article PMC12558477, “Flavin affinity for the reductase HpaC differentially sensitizes Neisseria gonorrhoeae during Type IV pilus-dependent killing” (PLOS Pathogens, 2025).

Biological target: T1, HpaC (Gc HpaC, FA1090 HpaC) (Neisseria gonorrhoeae, UniProt Q5FAG3)
T1 construct: gene NGO_0059; His6-tagged full-length HpaC from pET28a, expressed in E. coli BL21(DE3); 166 residues; co-purifies with FAD; oligomer not measured (modelled on TftC homodimer)
Experiment: FAD released from purified protein by heat denaturation, coupled-enzyme fluorescent probe kit
Assay type: binding
Conditions: 0.5 µM protein, with and without 95 °C for 5 min; room temperature; co-purified FAD

T1 sequence (Q5FAG3 entry or part of it): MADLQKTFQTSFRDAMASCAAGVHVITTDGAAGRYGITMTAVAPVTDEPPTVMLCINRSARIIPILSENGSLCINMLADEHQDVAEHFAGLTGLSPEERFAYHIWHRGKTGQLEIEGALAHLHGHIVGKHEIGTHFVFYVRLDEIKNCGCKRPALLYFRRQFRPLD

Structure (SMILES): Cc1cc2nc3c(=O)[nH]c(=O)nc-3n(C[C@H](O)[C@H](O)[C@H](O)COP(=O)(O)OP(=O)(O)OC[C@H]3O[C@@H](n4cnc5c(N)ncnc54)[C@H](O)[C@@H]3O)c2cc1C [FAD]
- FAD released from purified protein by heat denaturation, coupled-enzyme fluoresc: We purified Gc HpaC and noticed an FAD signal in the absence of heat
